According to US11028073B2, “Butylphthalide-telmisartan hybrids, preparation method and application thereof” (GUANGDONG LONGFU MEDICINE CO., LTD., priority 2017, dated 2021):

Legend:
[1] = test system: rats with permanent middle cerebral artery occlusion; experiment: Rotarod performance test in pMCAO rats; format: in vivo, rat; conditions: in s (unit assumed)
Protocol: (§1) Experimental method: Surgical method was described as the operation method for the above tMCAO. The thread embolism remained in the brain of rats without pulling out, and rotarod performance was tested every day. Brains were taken out at 72 h after ischemia for the determination of infarct volume and neurobehavioral score. The process of the rotarod performance test was as follows: rats were placed on a rotating rod of which the speed was accelerated from 4 rpm up to the maximum speed of 40 rpm within 5 minutes. Rats were trained for 3 to 7 days before model establishment, the rotarod performance was tested at 1, 2 and 3 days after pMCAO, respectively, and the falling time of rats were recorded.
(§2) In FIG. 3, pMCAO model is established on male rats of 260 to 280 g (thread embolism is not pulled out, resulting in permanent ischemia), the administration method is the same as that in FIG. 2, and the infract volume, neurobehavioral scores and rotarod test were determined at 72 h after ischemia, as described above.

[2] = test system: rats with permanent middle cerebral artery occlusion; experiment: Infarct volume in rats with permanent middle cerebral artery occlusion (pMCAO); format: in vivo, rat; conditions: for Infarction rate (%): 72 h after ischemia
Protocol: as §1, §2

rats with tMCAO [3] = experiment: Neurobehavioral function score in tMCAO rats; format: in vivo, rat
Protocol: (§3) Experimental method: 75 SD male rats weighing 300±20 g were raised under the condition of 25° C. and relative humidity of 60% to 75% for 1 week for experiment. Rats were randomized into 5 groups: sham group, vehicle group, drug administration group at 24 h after ischemia, drug administration group at 6 h after ischemia, drug administration group at 4 h after ischemia, respectively, with 15 animals in each group.
(§4) Establishment of transient middle cerebral artery occlusion (tMCAO) rat model: The rats were anesthetized by intraperitoneal injection of chloral hydrate, and lying on an operating table with limbs fixed with string. […] ECA was ligated and cut off, ICA was clamped at the distal end with an arterial clip, and then a small opening was cut at the intersection of ECA and ICA near the ECA. A nylon thread with paraffin coated on one end was inserted from the small cut opening into the internal carotid artery at the intersection of the internal and external carotid arteries and further into the anterior cerebral artery at the proximal end, to block the blood supply to the middle cerebral artery on this side. At 120 minutes after ischemia, the nylon thread was withdrawn at the incision of the external carotid artery to achieve the reperfusion of the middle cerebral artery. The room temperature during surgery was controlled at 25 to 27° C.
(§5) Administration method: administrating after surgery with a concentration of 1 mg/kg. Drug administration group at 4 h after ischemia was administrated at 4 h after ischemia, and once again after 24 h. Drug administration group at 6 h after ischemia was administrated at 6 h after ischemia, and once again after 24 h. Drug administration group at 24 h after ischemia was administrated once at 24 h after ischemia.
(§6) After the time window for administration of 13 was determined, administration at 4 hour post-ischemia was selected as the subsequent testing time point. 95 SD male rats were randomized into 7 groups: sham group, vehicle group, NBP group, Telm group, NBP+Telm group, 13 group and edaravone group, respectively. The surgical procedure was as described above, NBP (1 mg/kg), Telm (1 mg/kg), NBP (1 mg/kg)+Telm (1 mg/kg), 13 (1 mg/kg) and edaravone (3 mg/kg) were administrated at 4 hour post-ischemia, and once again at 24 h, respectively. The infarct volume and neurobehavioral score were determined at 48 h post-ischemia.
The neurobehavioral function score of tMCAO rats were scored at 48 h after ischemia. Criteria for scoring is as follows: 0 point, no symptoms of nerve damage; 1 point, inability of fully extending forepaw at the healthy side; 2 points, circling to the healthy side; 3 points, tilting toward the healthy side; 4 points, inability of spontaneous walking and losing consciousness.
(§7) The experimental method was manipulated as described in 2. At 30 min before the administration of I3, rats were intraperitoneally injected with 20 mg/kg of AMPK inhibitor Compound C, and the volume of the ipsilateral hemisphere infarct and the neurobehavioral score were determined at 48 h post-ischemia. Western blot analysis was performed on ischemic brain tissue to determine the content of phosphorylated AMPK (p-AMPK) in the cerebral cortex at the infarct side.
(§8) In FIG. 2, tMCAO models are established in male rats of 260 to 280 g (thread embolism is pulled out from the rats after 2 hour ischemia, resulting in reperfusion), 13 compound (1 mg/kg) is intravenously injected at 4 h post-ischemia, and intravenously injected again at 24 h post-ischemia. […]

rats with tMCAO [4] = experiment: Infarct volume (TTC staining) in rats with transient middle cerebral artery occlusion (tMCAO); format: in vivo, rat
Protocol: as §3, §4, §5, §6
At 48 h post-ischemia, the rats were anesthetized with pentobarbital sodium, decapitated to get brain quickly, olfactory bulb, cerebellum and lower brain stem were removed, and coronal was cut into 6 slices. Then the brain slices were placed in the solution containing 4% TTC and 1 mol/L of K2HPO4, incubated at 37° C. for 30 min in the dark, during which the brain slices were flipped every 7 to 8 min. […] Images were taken after staining, and the infarct volume was calculated using an image analysis software. The percentage of infarct volume is calculated by the following formula: infarct area/total brain cross-sectional area×100%.
as §7, §8

[5] = test system: rats with permanent middle cerebral artery occlusion; experiment: Neurobehavioral score in pMCAO rats; format: in vivo, rat; conditions: for Neurobehavioral score: 72 h after ischemia
Protocol: as §1, §2

Nrf2 = experiment: Neh2-Luciferase reporter assay for Nrf2 activation in BV2 cells; format: cell-based; conditions: for activity of intracellular Nrf2 (luciferase): 24 h incubation, BV2 cells
Protocol: BV2 cells were transfected with Neh2-Luciferase reporter gene plasmid for 6 h, replaced a normal serum-containing medium and cultured for 24 h, then incubated with drug for 24 h, and treated with Reporter Lysis Buffer for 20 min. The Reporter Lysis Buffer was added to a 96-well plate, and the activity of luciferase was measured.
(§9) In FIGS. 1A and 1B, mouse primary microglia are pre-incubated with 1 μM or 5 μM of test compounds for 3 hours, then stimulated with LPS for 5 hours, and the protein content of pro-inflammatory factor TNF-α is determined by ELISA method. In FIG. 1C, the activations of the compounds on Nrf2 are tested by Luciferase Reporter Assay.

AMPK = experiment: Western blot of phosphorylated AMPK (p-AMPK) in cerebral cortex at the infarct side of tMCAO rats; format: in vivo, rat; conditions: Compound C 20 mg/kg i.p. 30 min before I3
Protocol: as §7

TNF-α = experiment: LPS-induced TNF-α release in mouse primary microglia (ELISA); format: cell-based; conditions: 1 μM or 5 μM drug pre-administrated 3 h, then 100 ng/mL LPS 5 h; supernatant ELISA
Protocol: The primary microglia were extracted from the brain of mouse and cultured, were pre-administrated with 1 μM or 5 μM drugs for 3 h, and then stimulated with 100 ng/mL lipopolysaccharide (LPS) for 5 h. The supernatant of cell culture was extracted, and the expression level of TNF-α in the supernatant was determined by ELISA method.
as §9

[6] = tMCAO rats, comparison groups, administrated at 4 h post-ischemia and again at 24 h, 1 mg/kg (edaravone 3 mg/kg), scored 48 h
[7] = administrated at 4 h post-ischemia and again at 24 h, 1 mg/kg (edaravone 3 mg/kg), determined 48 h post-ischemia

In the case of `CCCCC(OC(C)=O)c1ccccc1C(=O)OCCCCOC(=O)c1ccccc1-c1ccc(Cn2c(CCC)nc3c(C)cc(-c4nc5ccccc5n4C)cc32)cc1` (stereo not shown) [I2, 4-O-{2-[(1-acetoxyl)n-pentyl]benzoyl}butanediol telmisartan ester], the melting point was 83 °C.

In the case of `CC1=NN(c2ccccc2)C(=O)C1` [Edaravone, reference compound], the Falling time ([1]; Before modeling (baseline)) was 292.17, the Falling time ([1]; Day 1 after pMCAO) was 56.33 and the Falling time ([1]; Day 2 after pMCAO) was 64.00. For the same compound, the Falling time ([1]; Day 3 after pMCAO) was 74.00, the “Infarction rate (%)” value [2] was 16.7% and the Neurobehavioral score (rats with tMCAO [3]; [6]) was 1.556. The “Infarction rate (%)” value (rats with tMCAO [4]; [7]) was 6.183% and the Neurobehavioral score [5] was 1.7.

Work on `CCCCC(OC(C)=O)c1ccccc1C(=O)OCCCCCCCCOC(=O)c1ccccc1-c1ccc(Cn2c(CCC)nc3c(C)cc(-c4nc5ccccc5n4C)cc32)cc1` (stereo not shown) [I6, 8-O-{2-[(1-acetoxyl)n-pentyl]benzoyl}octanediol telmisartan ester] yielded a melting point of 83 to 84 °C.

For `CCCCC(OC(C)=O)c1ccccc1C(=O)OCCCCCOC(=O)c1ccccc1-c1ccc(Cn2c(CCC)nc3c(C)cc(-c4nc5ccccc5n4C)cc32)cc1` (stereo not shown) [I4, 5-O-{2-[(1-acetoxyl)n-pentyl]benzoyl}pentanediol telmisartan ester], the melting point was 78 to 79 °C.

`CCCCc1nc(C)c(C(=O)NCCCCCCCCNC(=O)c2ccccc2C(CCCC)OC(C)=O)n1Cc1ccc(-c2ccccc2-c2nnn[nH]2)cc1` (stereo not shown) [I17] showed a melting point of 197 to 199 °C.

`CCCCC(OC(C)=O)c1ccccc1C(=O)OCCCCCCOC(=O)c1ccccc1-c1ccc(Cn2c(CCC)nc3c(C)cc(-c4nc5ccccc5n4C)cc32)cc1` (stereo not shown) [I5, 6-O-{2-[(1-acetoxyl)n-pentyl]benzoyl}hexanediol telmisartan ester] gave a melting point of 82 to 83 °C.

With `CCCc1nc2c(C)cc(-c3nc4ccccc4n3C)cc2n1Cc1ccc(-c2ccccc2C(=O)O)cc1` [Telm, Telmisartan] the Neurobehavioral score (rats with tMCAO [3]; [6]) was 1 and the “Infarction rate (%)” value (rats with tMCAO [4]; [7]) was 11.57%.

With `CCCCC(OC(C)=O)c1ccccc1C(=O)NCCCCCCNC(=O)c1ccccc1-c1ccc(Cn2c(CCC)nc3c(C)cc(-c4nc5ccccc5n4C)cc32)cc1` (stereo not shown) [I7, 6-N-{2-[(1-acetoxyl)n-pentyl]benzoyl}hexanediamine telmisartan amide] the “activity of intracellular Nrf2 (luciferase)” value (from here on “activity of intracellular Nrf2”) (Nrf2; 10 μM) was “significantly activate the activity of intracellular Nrf2” and the melting point was 96 to 98 °C.

With `CCCCC(OC(C)=O)c1ccccc1C(=O)NCCCCCCCCNC(=O)c1ccccc1-c1ccc(Cn2c(CCC)nc3c(C)cc(-c4nc5ccccc5n4C)cc32)cc1` (stereo not shown) [I3, 8-N-{2-[(1-acetoxyl)n-pentyl]benzoyl}octanediamine telmisartan amide] the Falling time ([1]; Before modeling (baseline)) was 279.10, the Falling time ([1]; Day 1 after pMCAO) was 68.63 and the Falling time ([1]; Day 2 after pMCAO) was 94.00. The Falling time ([1]; Day 3 after pMCAO) was 125.13, the “Infarction rate (%)” value [2] was 12.48% and the infarct volume ([2]; in words) was “significantly reduced the infarct volume”. The “activity of intracellular Nrf2” value (Nrf2; 1 μM) was “significantly activate the activity of intracellular Nrf2”, the “activity of intracellular Nrf2” value (Nrf2; 10 μM) was “significantly activate the activity of intracellular Nrf2” and the “neurological function score compared with vehicle group” value (rats with tMCAO [3]; tMCAO (I/R) rats, administration at each time point) was “significantly reduced ischemia-induced neurological function score”. It also gave a Neurobehavioral score (rats with tMCAO [3]; tMCAO rats, 1 mg/kg, administrated after 4 h (time-window groups), scored 48 h after ischemia (0-4 points)) of 2.385, a Neurobehavioral score (rats with tMCAO [3]; tMCAO rats, 1 mg/kg, administrated after 6 h, scored 48 h after ischemia (0-4 points)) of 1.867 and a Neurobehavioral score (rats with tMCAO [3]; tMCAO rats, 1 mg/kg, administrated after 24 h, scored 48 h after ischemia (0-4 points)) of 1.182. The “neurological function compared with NBP, Telm and NBP+Telm” value (rats with tMCAO [3]; tMCAO rats, 4 h post-ischemia) was “more pronounced effect on improving the neurological function”, the Neurobehavioral score (rats with tMCAO [3]; tMCAO rats, I3 1 mg/kg i.v. at 4 h after ischemia, with or without Compound C 20 mg/kg i.p. 30 min before, 48 h post-ischemia) was 1.182 and the Neurobehavioral score (rats with tMCAO [3]; [6]) was 1.182. The “Infarction rate (%)” value (rats with tMCAO [4]; 1 mg/kg administrated at 6 h after ischemia and once again after 24 h, determined 48 h post-ischemia) was 13.07%, the “Infarction rate (%)” value (rats with tMCAO [4]; 1 mg/kg administrated once at 24 h after ischemia, determined 48 h post-ischemia) was 20.72% and the “infarct volume compared with NBP group, Telm group and NBP+Telm group” value (rats with tMCAO [4]; 4 h post-ischemia) was “more pronounced effect on reducing the infarct volume”. For the same compound, the “Infarction rate (%)” value (rats with tMCAO [4]; I3 1 mg/kg i.v. at 4 h after ischemia, with or without Compound C 20 mg/kg i.p. 30 min before, 48 h post-ischemia) was 6.655%, the “Infarction rate (%)” value (rats with tMCAO [4]; [7]) was 6.655% and the “infarct volume compared with vehicle group” value (rats with tMCAO [4]; administrating at each time point (4 h, 6 h, 24 h)) was “significantly reduced the infarct volume”. For the same compound, the “AMPK activity (p-AMPK content in cerebral cortex at the infarct side)” value (AMPK) was “increase of AMPK activity”, the “LPS-induced TNF-α release in mouse primary microglia” value (TNF-α) was “significantly inhibit LPS-induced TNF-α release” and the melting point was 94 to 95 °C. For the same compound, the Neurobehavioral score [5] was 1.6 and the neurobehavioral impairment ([5]; in words) was “improved neurobehavioral impairment”.

With `CCCCC(OC(C)=O)c1ccccc1C(=O)NCCCCNC(=O)c1ccccc1-c1ccc(Cn2c(CCC)nc3c(C)cc(-c4nc5ccccc5n4C)cc32)cc1` (stereo not shown) [I8, 4-N-{2-[(1-acetoxyl)n-pentyl]benzoyl}butanediamine telmisartan amide] the “activity of intracellular Nrf2” value (Nrf2; 10 μM) was “significantly activate the activity of intracellular Nrf2” and the melting point was 97 to 99 °C.

With `c1cc(-c2cnn3cc(-c4ccc(OCCN5CCCCC5)cc4)cnc23)ccn1` [Compound C, reference compound] the “AMPK activity (p-AMPK content in cerebral cortex at the infarct side)” value (AMPK) was “inhibit the increase of AMPK activity induced by I3”.

For `Cc1c(-c2cnccn2)ssc1=S` [Oltipraz, reference compound], the “activation of Nrf2” value (Nrf2; concentration not given) was “significantly promote the activation of Nrf2”.

In the case of `CCCCC1OC(=O)c2ccccc21` (stereo not shown) [NBP, Butylphthalide], the Neurobehavioral score (rats with tMCAO [3]; [6]) was 2.7 and the “Infarction rate (%)” value (rats with tMCAO [4]; [7]) was 20.99%.
